This note sets out measurements from patent US9957265B2, “N-(2-cyano heterocyclyl) pyrazolo pyridones as janus kinase inhibitors” (Merck Sharp & Dohme Corp., priority 2013, dated 2018).

In assay [1] the target is JAK1 (Homo sapiens (Human), UniProt P23458). Briefly: Jak Biochemical HTRF Assay (JAK1). As to conditions: recombinant GST-tagged catalytic domain, [ATP] 31.8 μM, unit not given (compound concentrations tested given in nM). The source says: Jak Biochemical HTRF Assay Protocol
Subsequent reagent additions employed an Agilent Bravo.
Background: In TR-FRET formats the signal depends on donor and acceptor labels being close together.

Assay [2] addresses JAK2 (Homo sapiens (Human), UniProt O60674). Nature of the assay: Jak Biochemical HTRF Assay (JAK2).
Description: The ability of compounds to inhibit the activity of JAK1, JAK2, JAK3, and TYK2 was measured using a recombinant purified GST-tagged catalytic domain for each enzyme (Invitrogen JAK1 #M4290, JAK2 #M4290, JAK3 #M4290, TYK2 #M4290) in an HTRF format biochemical assay. […] Subsequent reagent additions employed an Agilent Bravo. […] After equilibration, 2 μL of 10×ATP in 1× assay buffer was added to initiate the kinase reaction and the plates were shaken and then incubated at room temperature for 120 minutes. […] After normalization to untreated controls, the percent inhibition of the HTRF signal at each compound concentration was calculated. The plot of percent inhibition versus the log of compound concentration was fit with a 4-parameter dose response equation to calculate IC50 values.
Final reaction conditions were:
[3] abbreviates: JAK2 IC50, recombinant GST-tagged catalytic domain, [ATP] 8.5 μM, unit not given (compound concentrations tested given in nM).
Where [4] appears, read: read-out: JAK2 IC50, recombinant GST-tagged catalytic domain, [ATP] 8.5 μM, unit not given (compound concentrations tested given in nM).

Read-outs that look alike come from different tables or passages of the source.

JAK2, sequence (O60674 849-1124): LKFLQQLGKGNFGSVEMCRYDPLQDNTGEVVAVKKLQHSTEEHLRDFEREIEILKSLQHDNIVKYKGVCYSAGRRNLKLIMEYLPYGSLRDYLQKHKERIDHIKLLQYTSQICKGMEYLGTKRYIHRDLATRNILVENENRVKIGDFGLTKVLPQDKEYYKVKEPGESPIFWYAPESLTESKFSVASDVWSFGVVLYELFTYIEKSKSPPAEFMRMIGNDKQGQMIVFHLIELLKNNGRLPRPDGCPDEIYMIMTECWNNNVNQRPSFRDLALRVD
JAK1, sequence (P23458 875-1153): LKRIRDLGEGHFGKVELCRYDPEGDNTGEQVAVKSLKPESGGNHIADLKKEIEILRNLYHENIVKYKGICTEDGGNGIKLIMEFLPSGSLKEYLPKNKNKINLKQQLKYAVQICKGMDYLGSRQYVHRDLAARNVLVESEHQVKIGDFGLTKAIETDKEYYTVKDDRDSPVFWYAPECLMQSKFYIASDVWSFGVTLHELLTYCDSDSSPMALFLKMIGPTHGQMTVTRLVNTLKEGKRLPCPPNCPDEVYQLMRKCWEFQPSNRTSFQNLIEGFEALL

As for `CC(C)CNC(c1ccc(Nc2nn([C@H]3COCC[C@@H]3C#N)c3cc[nH]c(=O)c23)cc1)C(F)(F)F` (single isomer, unassigned) [Example 1-91, (3R,4S)-3-{4-oxo-3-[(4-{(1R or 1S)-2,2,2-trifluoro-1-[(2-methylpropyl)amino]ethyl}phenyl)amino]-4,5-dihydro-1H-pyrazolo[4,3-c]pyridin-1-yl}tetrahydro-2H-pyran-4-carbonitrile], the IC50 in assay [1] is 0.17 nM; in assay [2] (setting [3]), 0.21 nM.
Taken in the same sequence, the figures for `CN1CCN(C(c2ccc(Nc3nn([C@H]4COCC[C@@H]4C#N)c4cc[nH]c(=O)c34)cc2)C(F)(F)F)CC1` (single isomer, unassigned) [Example 1-37, (3R,4S)-3-[4-oxo-3-({4-[(1S or 1R)-2,2,2-trifluoro-1-(4-methylpiperazin-1-yl)ethyl]phenyl}amino)-4,5-dihydro-1H-pyrazolo[4,3-c]pyridin-1-yl]tetrahydro-2H-pyran-4-carbonitrile] were 0.22 nM and 0.33 nM.
Taken in the same sequence, the figures for `CN(C)C(c1ccc(Nc2nn([C@H]3COCC[C@@H]3C#N)c3cc[nH]c(=O)c23)cc1)C(F)(F)F` (single isomer, unassigned) [Example 1-59, (3R,4S)-3-[3-({4-[(1S or 1R)-1-(dimethylamino)-2,2,2-trifluoroethyl]phenyl}amino)-4-oxo-4,5-dihydro-1H-pyrazolo[4,3-c]pyridin-1-yl]tetrahydro-2H-pyran-4-carbonitrile] were 0.05 nM and 0.08 nM.
Taken in the same sequence, the figures for `CC1(C)CC1NC(c1ccc(Nc2nn([C@H]3COCC[C@@H]3C#N)c3cc[nH]c(=O)c23)cc1)C(F)(F)F` (single isomer, unassigned) [Example 1-48, (3R,4S)-3-{3-[(4S or 4R-{1S or 1R-[(2,2-dimethylcyclopropyl)amino]-2,2,2-trifluoroethyl}phenyl)amino]-4-oxo-4,5-dihydro-1H-pyrazolo[4,3-c]pyridin-1-yl}tetrahydro-2H-pyran-4-carbonitrile] were 0.65 nM and 1.73 nM.
Regarding `CC(C)S(=O)(=O)c1ccc(Nc2nn([C@H]3COCC[C@@H]3C#N)c3cc[nH]c(=O)c23)cc1` [Example 1-11, (3R,4S)-3-(3-((4-(isopropylsulfonyl)phenyl)amino)-4-oxo-4,5-dihydro-1H-pyrazolo[4,3-c]pyridin-1-yl)tetrahydro-2H-pyran-4-carbonitrile], the IC50 was 0.09 nM in assay [1] and 0.34 nM in assay [2] (setting [4]).
As to `CC(C)(C)CNC(c1ccc(Nc2nn([C@H]3COCC[C@@H]3C#N)c3cc[nH]c(=O)c23)cc1)C(F)(F)F` (single isomer, unassigned) [Example 1-83, (3R,4S)-3-{3-[(4-{(1R or 1S)-1-[(2,2-dimethylpropyl)amino]-2,2,2-trifluoroethyl}phenyl)amino]-4-oxo-4,5-dihydro-1H-pyrazolo[4,3-c]pyridin-1-yl} tetrahydro-2H-pyran-4-carbonitrile], the IC50 stood at 0.5 nM in assay [1] and 1.06 nM in assay [2] (setting [3]).
As for `CS(=O)(=O)c1ccc(Nc2nn([C@H]3COCC[C@@H]3C#N)c3cc[nH]c(=O)c23)cc1` [Example 1-2, (3R,4S)-3-(3-((4-(methylsulfonyl)phenyl)amino)-4-oxo-4,5-dihydro-1H-pyrazolo[4,3-c]pyridin-1-yl)tetrahydro-2H-pyran-4-carbonitrile], the results for the IC50 in assay [1] and in assay [2] (setting [4]) were 0.05 nM and 0.35 nM, respectively.
As to `N#C[C@H]1CCOC[C@@H]1n1nc(Nc2ccc(C(NC3CCCC3)C(F)(F)F)cc2)c2c(=O)[nH]ccc21` (single isomer, unassigned) [Example 1-84, (3R,4S)-3-[3-({4-[(1S or 1R)-1-(cyclopentylamino)-2,2,2-trifluoroethyl]phenyl}amino)-4-oxo-4,5-dihydro-1H-pyrazolo[4,3-c]pyridin-1-yl]tetrahydro-2H-pyran-4-carbonitrile], the IC50 in assay [1] was found to be 0.13 nM; in assay [2] (setting [3]) it was 0.15 nM.
In the same order, the values of `CC1CCN1S(=O)(=O)c1ccc(Nc2nn([C@H]3COCC[C@@H]3C#N)c3cc[nH]c(=O)c23)cc1` (single isomer, unassigned) [Example 1-77, (3R,4S)-3-{3-[(4-{[(2R or 2S)-2-methylazetidin-1-yl]sulfonyl}phenyl)amino]-4-oxo-4,5-dihydro-1H-pyrazolo[4,3-c]pyridin-1-yl}tetrahydro-2H-pyran-4-carbonitrile] are 0.05 nM and 0.17 nM.
In the case of `N#C[C@H]1CCOC[C@@H]1n1nc(Nc2ccnc(F)c2)c2c(=O)[nH]ccc21` [Example 1-30, (3R,4S)-3-{3-[(2-fluoropyridin-4-yl)amino]-4-oxo-4,5-dihydro-1H-pyrazolo[4,3-c]pyridin-1-yl}tetrahydro-2H-pyran-4-carbonitrile], the IC50 is 0.25 nM in assay [1] and 4.65 nM in assay [2] (setting [4]).
`N#C[C@H]1CCOCC1n1nc(Nc2ccc(C(O)(c3ccccn3)C(F)(F)F)cc2)c2c(=O)[nH]ccc21` (single isomer, unassigned) [Example 1-97, (3R,4S)-3-(4-oxo-3-((4-((S or R)-2,2,2-trifluoro-1-hydroxy-1-(pyridin-2-yl)ethyl)phenyl)amino)-4,5-dihydro-1H-pyrazolo[4,3-c]pyridin-1-yl)tetrahydro-2H-pyran-4-carbonitrile]: the values for the IC50 in assay [1] and in assay [2] (setting [3]) were 0.14 nM and 0.18 nM, respectively.
As for `CCN(C(C)(C)C)S(=O)(=O)c1ccc(Nc2nn([C@H]3COCC[C@@H]3C#N)c3cc[nH]c(=O)c23)cc1` [Example 1-79, N-(tert-butyl)-4-((1-((3R,4S)-4-cyanotetrahydro-2H-pyran-3-yl)-4-oxo-4,5-dihydro-1H-pyrazolo[4,3-c]pyridin-3-yl)amino)-N-ethylbenzenesulfonamide], the figures for the IC50 in assay [1] and in assay [2] (setting [4]) were 0.04 nM and 0.08 nM, respectively.
For `CC1CN(S(=O)(=O)c2ccc(Nc3nn([C@H]4COCC[C@@H]4C#N)c4cc[nH]c(=O)c34)cc2)CCO1` (single isomer, unassigned) [Example 1-75, (3R,4S)-3-{3-[(4-{[(2R or 2S)-2-methylmorpholin-4-yl]sulfonyl}phenyl)amino]-4-oxo-4,5-dihydro-1H-pyrazolo[4,3-c]pyridin-1-yl}tetrahydro-2H-pyran-4-carbonitrile], the results for the IC50 in assay [1] and in assay [2] (setting [3]) were 0.14 nM and 0.54 nM, respectively.
As for `N#C[C@H]1CCOC[C@@H]1n1nc(Nc2ccc(C(N)C(F)(F)F)cc2)c2c(=O)[nH]ccc21` (single isomer, unassigned) [Example 1-8, (3R,4S)-3-(3-((4-((R or S)-1-amino-2,2,2-trifluoroethyl)phenyl)amino)-4-oxo-4,5-dihydro-1H-pyrazolo[4,3-c]pyridin-1-yl)tetrahydro-2H-pyran-4-carbonitrile], the IC50 was 0.06 nM in assay [1] and 0.22 nM in assay [2] (setting [3]).
In the case of `N#C[C@H]1CCOC[C@@H]1n1nc(Nc2ccc(C(NC3CCCC3)C(F)(F)F)cc2)c2c(=O)[nH]ccc21` (single isomer, unassigned) [Example 1-85, (3R,4S)-3-[3-({4-[(1R or 1S)-1-(cyclopentylamino)-2,2,2-trifluoroethyl]phenyl}amino)-4-oxo-4,5-dihydro-1H-pyrazolo[4,3-c]pyridin-1-yl]tetrahydro-2H-pyran-4-carbonitrile], the figures for the IC50 in assay [1] and in assay [2] (setting [3]) were 0.12 nM and 0.14 nM, respectively.
Regarding `CC(C)CN1Cc2ccc(Nc3nn([C@H]4COCC[C@@H]4C#N)c4cc[nH]c(=O)c34)cc2C1` [Example 1-14, (3R,4S)-3-(3-{[2-(2-methylpropyl)-2,3-dihydro-1H-isoindol-5-yl]amino}-4-oxo-4,5-dihydro-1H-pyrazolo[4,3-c]pyridin-1-yl)tetrahydro-2H-pyran-4-carbonitrile], the IC50 in assay [1] was found to be 0.22 nM; in assay [2] (setting [4]), 0.41 nM.
Turning to `N#C[C@H]1CCOC[C@@H]1n1nc(Nc2ccc(C(NC3CCC3)C(F)(F)F)cc2)c2c(=O)[nH]ccc21` (single isomer, unassigned) [Example 1-92, (3R,4S)-3-[3-({4-[(1S or 1R)-1-(cyclobutylamino)-2,2,2-trifluoroethyl]phenyl}amino)-4-oxo-4,5-dihydro-1H-pyrazolo[4,3-c]pyridin-1-yl]tetrahydro-2H-pyran-4-carbonitrile], the values for the IC50 in assay [1] and in assay [2] (setting [3]) were 0.13 nM and 0.19 nM, respectively.
Taken in the same sequence, the figures for `N#C[C@H]1CCOC[C@@H]1n1nc(Nc2ccc(C(N3CCNCC3)C(F)(F)F)cc2)c2c(=O)[nH]ccc21` (single isomer, unassigned) [Example 1-39, (3R,4S)-3-[4-oxo-3-({4-[(1S or 1R)-2,2,2-trifluoro-1-piperazin-1-ylethyl]phenyl}amino)-4,5-dihydro-1H-pyrazolo[4,5-c]pyridin-1-yl]tetrahydro-2H-pyran-4-carbonitrile] were 0.13 nM and 0.17 nM.
As for `CC(C)(C)N1Cc2cc(Nc3nn([C@H]4COCC[C@@H]4C#N)c4cc[nH]c(=O)c34)ccc2S1(=O)=O` [Example 1-5, (3R,4S)-3-(3-((2-(tert-butyl)-1,1-dioxido-2,3-dihydrobenzo[d]isothiazol-5-yl)amino)-4-oxo-4,5-dihydro-1H-pyrazolo[4,3-c]pyridin-1-yl)tetrahydro-2H-pyran-4-carbonitrile], the IC50 in assay [1] came to 0.05 nM; in assay [2] (setting [4]), 0.15 nM.
In the case of `COC(=N)c1cc(Nc2nn([C@H]3COCC[C@@H]3C#N)c3cc[nH]c(=O)c23)ccc1O` [Example 1-16, methyl 5-({1-[(3R,4S)-4-cyanotetrahydro-2H-pyran-3-yl]-4-oxo-4,5-dihydro-1H-pyrazolo[4,3-c]pyridin-3-yl}amino)-2-hydroxybenzenecarboximidoate], the IC50 in assay [1] came to 0.36 nM; in assay [2] (setting [4]), 5.04 nM.
Taken in the same sequence, the figures for `N#Cc1ccc(Nc2nn([C@H]3COCC[C@@H]3C#N)c3cc[nH]c(=O)c23)cc1` [Example 1-31, (3R,4S)-3-{3-[(4-cyanophenyl)amino]-4-oxo-4,5-dihydro-1H-pyrazolo[4,3-c]pyridin-1-yl}tetrahydro-2H-pyran-4-carbonitrile] were 0.12 nM and 0.96 nM.
